From a melting point compilation (Tetko et al.; mined from patent text by program, amines drawn as free bases though some values may be those of a salt)

melting point	Compound
170 °C	COc1ccc(CN(C)CCOc2ccc(NC(=O)c3cc(SC)cc4c(=O)c5ccccc5[nH]c34)cc2)cc1OC
59 to 68 °C	OC[C@H]1O[C@@H]1c1ccc(Cl)cc1
217 to 220 °C	CNc1c(N)n(CC(C)(C)C)c(=O)[nH]c1=O
212 to 214 °C	Nc1ccc(Oc2ccc(Oc3ccc(S(=O)(=O)c4ccc(Oc5ccc(Oc6ccc(N)cc6)cc5)cc4)cc3)cc2)cc1
133 to 134 °C	COc1cc(C2NC(=O)C(C)S2)cc(OC)c1OC (stereo not drawn)
209 to 210 °C	COc1ccc2c(c1)nc(COc1ccc(CC3SC(=O)NC3=O)cc1)n2C (stereo not drawn)
148 °C	CN(C)C(=O)Nc1coc2ccccc2c1=O
127 to 128 °C	O=C(O)c1c(OCc2ccccc2)ccc2ccccc12
275 to 280 °C	CCCCOc1cc2c3c(ccc4c5ccc6c7c(cc(OCCCC)c(c1c34)c75)-c1ccccc1C6=O)C(=O)c1ccccc1-2
194 to 195 °C	CC1(C)OC(=O)Nc2c(Br)cc(-c3ccc(F)c(Cl)c3)cc21
242 to 243 °C	CC(C)NC1=NS(=O)(=O)c2c(cnn2C)N1
188 to 190 °C	N#Cc1cnn2c1N(C(=O)CN1CCN(Cc3ccccc3F)CC1)CC=C2c1cccc(C(F)(F)F)c1
> 300 °C	O=c1oc(-c2ccc(-c3nc4ccccc4c(=O)o3)cc2)nc2ccccc12
190 to 194 °C	Cn1nnc2sc(N)cc2c1=O
141 to 143 °C	COC1=CC(=O)C=CC1=O
184 to 185 °C	O=C(Nc1c(C(O)(C(F)(F)F)C(F)(F)F)ccc2ccccc12)c1cccc(Br)c1
74 to 75.5 °C	Cc1cc(C)c(C=O)c(O)c1C
119 to 120 °C	CN(C)CCCCC1CCCN(CCNC(=O)N2c3ccccc3C(=O)Nc3cccnc32)C1 (stereo not drawn)
66 to 67.5 °C	Nc1cccc(S(=O)(=O)C(F)(F)C(F)Cl)c1 (stereo not drawn)
129 to 130 °C	CC(C)C(C(=O)O)c1ccc2ccccc2c1 (stereo not drawn)
119 to 123 °C	C=CCc1cc(C(=O)O)ccc1O
118 to 122 °C	CC(C)n1c(-c2ccccc2)cc(-c2ccc(F)cc2)c1C=O
180 to 182 °C	N#CC1CCc2cc(C(N)=O)ccc2C1 (stereo not drawn)
154 °C	CC(C)N(C(N)=O)C(Oc1ccccc1)C(C)(O)Cl (stereo not drawn)
109 to 111 °C	S=C(NCN1CCOCC1)C(CN1CCOCC1)c1ccccn1 (stereo not drawn)

melting point	Compound
100 to 102 °C	NS(=O)(=O)Oc1cccc(C(F)(F)F)c1
153 °C	CC(C)(CC(F)(F)F)NC(=N)NC#N
> 300 °C	Cc1cc(C#N)cc(C)c1Oc1nc(Nc2ccc(C#N)cc2)ncc1N
112 to 113 °C	COc1ccc(C)cc1NC(=O)Nc1ccc(N2CCN(C(=O)Nc3ccc(C(O)CO)cc3C)CC2)cc1 (stereo not drawn)
98 to 100 °C	COC(=O)c1cscc1NC(=O)CCl
129 to 131 °C	COC(=O)c1snc(-c2ccc(OC)cc2)c1N
165 to 166 °C	CCCC(CCC)C(=O)O[C@H]1C[C@H](O)C=C2C=C[C@H](C)[C@H](CC[C@@H]3C[C@@H](O)CC(=O)O3)[C@H]21
120 to 121 °C	COc1ccc2[nH]c(SCc3ncc(C)c(OC)c3C)nc2c1
95 to 97 °C	CCSc1c[nH]nc1C1=CCCN(C)C1
130 to 132 °C	COc1c(N)ccc2c1C(CCNC(C)=O)CC2 (stereo not drawn)
63 to 65 °C	C=CCON=C(CC)C1=C(O)CC(c2c(C)c(C)c3c(c2C)CC(C)(C)C3)CC1=O (stereo not drawn)
213 to 215 °C	N#Cc1ccc(/C=C/C2=CCN(Cc3c[nH]c4ncccc34)CC2)cc1
165 to 166 °C	COc1cc(COc2ccccc2CC(=O)O)ccc1OCc1nc(-c2ccccc2)oc1C
215 °C	CCOc1ccc(-c2cncn2-c2ccc(S(=O)(=O)NC(C)(C)C)cc2)cc1
> 410 °C	CSC1=N/C(=C\c2c[nH]c3ncc(Cl)cc23)C(=O)N1
184 to 186 °C	C=C(C)CN(CC(=O)O)c1c(N)c(=O)c1=O
80 to 81 °C	Cc1cccc2c1sc1nc(C(F)(F)F)nn12
141 to 142 °C	COc1cccc(C(=O)N2CCc3cc(O)c(OC)cc3C2)c1
175 °C	CN1CCCC1=NC(=O)Nc1ccc(Cl)c(C(F)(F)F)c1
241 to 242 °C	O=C1c2ccccc2C(=O)N1CC(=O)N1c2ccccc2N(Cc2ccccc2)C(=O)[C@H]2CCCC[C@H]21 (relative stereo)
223 to 227 °C	COc1cc(C(=O)OCc2ccc3nc(N)nc(N)c3c2)cc(OC)c1OC
282 to 284 °C	CNC(=O)c1ccccc1Nc1nc(Nc2cccc3c2N(C)CCNC3=O)ncc1Cl
121 to 123 °C	CCNc1cnc(-c2ccccc2)c(-c2ccccc2)n1
133 to 135 °C	CCOC(=O)/C(=N\O[C@H]1CC[C@H](C)CC1)c1csc(N)n1
172 to 173 °C	CCCn1c(=O)c2c(nc(/C=C/c3ccc(OCOC)c(OCOC)c3)n2C)n(CCC)c1=O

melting point	Compound
224 to 226 °C	CC(=O)NC[C@H]1CN(c2ccc(C(=O)c3cnc4ccc(C#N)cn34)cc2)C(=O)O1
98 to 99 °C	CCOC(=O)C1=Cc2cccc(NC(=O)CCCCl)c2OCC1
125 to 128 °C	COc1ccc(C(=NOC(C)=O)c2ccccc2F)c(O)c1Cl
205 to 208 °C	Cc1cccc(C)c1NC(=O)N(Cc1ccccc1)CC(c1ccccc1)c1ccccc1
164 to 166 °C	CC(=NC(=Nc1ccccc1)N1CCOCC1)NC(C)(C)C
39.5 to 40.5 °C	CON=C(C(=O)OC)c1cccc(O)c1
112 to 113 °C	Fc1cc2c(c(-c3c(Cl)cccc3Cl)c1)OC(CNC1CC1)C2 (stereo not drawn)
205 to 208 °C	COc1ccc(CCc2oc3ccc(C#N)cc3c2C(=O)O)cc1
69 to 76 °C	COc1cc(N2CCC(N3CCCN(C)CC3)CC2)ccc1Nc1ncc2ccc(-c3ccccc3OC)n2n1
70 to 71 °C	NS(=O)(=O)c1ccc(CO)s1
150 °C	O=Cc1c(-c2ccccc2)nc2sc3c(n12)CCCC3
226 °C	NNC(=O)C(=O)N(N)C(=O)c1ccccc1
152 to 164 °C	COc1ccc2c(c1)cc1cnc(Nc3ccc(N4CCOCC4)cc3OC)nn12
73 °C	COC(=O)[C@H]1CN(CCO)CC[C@H]1NC(=O)OCc1ccccc1
124 °C	CS(=O)(=O)c1ccc(-c2nn(CC3CC3)c(=O)cc2-c2ccc(F)cc2)cc1
161 to 163 °C	COC(=O)c1ccc2c([N+](=O)[O-])cc3c(c2c1)C(CCl)CN3 (stereo not drawn)
237 to 240 °C	CCc1cc2c(ccc(=O)n2Cc2ccc(NC(=O)c3ccccc3C(=O)O)cc2)c(CC)n1
136 to 138 °C	COc1ccc2cccc(C(CO)CNC(C)=O)c2c1 (stereo not drawn)
139 to 140 °C	Cc1cccc(C)c1NC(=O)CN1CCN(C=O)CC1
303 to 307 °C	O=C(O)C(Cc1ccc(OCCN2c3ccccc3Oc3ccccc32)cc1)C(=O)O
230 to 231 °C	CC(C)(C)c1cc(C(=O)c2c[nH]c(SC#N)c2)cc(C(C)(C)C)c1O
166 to 168 °C	O=C(c1ccccc1)N1CCNc2ncccc21
90 to 93.5 °C	COC(=O)c1ccc(C(=O)OC)c(SCc2ccccc2)c1
247 to 248 °C	CCCC(=O)c1cnc2c(OC)cccc2c1Nc1c(C)cc(O)cc1C
159 to 161 °C	O=C(O)c1cc(=O)c2cccc(/C=C/c3ccc(OCCCCc4ccccc4)cc3)c2o1

melting point	Compound
158 to 160 °C	Clc1ccc(C2CCN3c4ccccc4C4=NCCN4C23)cc1 (stereo not drawn)
152 to 153 °C	CC1(C)CCCc2cc(CC#Cc3ccc(C(=O)O)c(O)c3)ccc21
131 to 134 °C	CCCCOC1(N)C=CC(NC(=O)CBr)=CC1 (stereo not drawn)
208 to 211 °C	CC(=O)C1=CCC2C3CCC4=CC(=O)CCC4(C)C3(F)C(=O)CC12C (stereo not drawn)
96 °C	O=C1c2ccc(-c3cccc(C(F)(F)F)c3)cc2CC1Br (stereo not drawn)
135 to 137 °C	CC1=C(C)CC2C(C1)C(=O)NS2=O (stereo not drawn)
189 to 190 °C	Cc1ccccc1C(=O)Nc1ccc(C(=O)N2CCCC(COS(C)(=O)=O)c3ccccc32)cc1 (stereo not drawn)
171 to 173 °C	COCC(=O)Nc1c(Cl)c(Cl)cc2nc(OC)c(OC)nc12
192 to 195 °C	C=CCc1c(O)ccc2c(C)cc(=O)oc12
128 to 129 °C	O=C(Cc1ccc(Cl)cc1)c1ccc(Br)cc1
134 to 135 °C	COC(=O)c1ccc(I)nc1
196 °C	CCOC(=O)N1CCN(c2ccc(-n3cnn(C(CC)C(O)c4ccc(Cl)cc4)c3=O)cn2)CC1 (stereo not drawn)
228 to 231 °C	CCn1nc(C)c2c(NCc3ccccc3)c3ccccc3nc21
167 to 169 °C	ClC(Cl)(Cl)C1OCc2ccccc2O1 (stereo not drawn)
> 75 °C	CCCCc1nn(-c2cc([N+](=O)[O-])ccc2Cl)c(=O)n1Cc1ccc(-c2ccccc2S(=O)(=O)NC(C)(C)C)cc1
104 to 107 °C	C=C(C(=O)OC1CC2CCC(C1)N2C(C)=O)c1ccccc1 (stereo not drawn)
233 to 235 °C	COc1ccc(CNc2nc(CN3CCC(C(=O)O)CC3)nc3oc4c(c23)CCCC4)cc1Cl
152 to 153 °C	O=C(O)C(=O)c1ccc(OCCOc2ccc3ccccc3c2)cc1Cl
152 °C	COc1ccccc1Oc1c(Cl)ncnc1NS(=O)(=O)c1ccc(C(C)(C)C)cc1
167 °C	COC(=O)c1cc(-c2ccc(Cl)cc2)n(-c2ccc(Cl)cc2Cl)n1
103 to 104 °C	CCOC(=O)C(=CNC1CC1)C(=O)c1c(N)c(F)c(F)c(OC(F)F)c1F
92 to 100 °C	CC(C)NCCCOc1ccc(O)cc1
146 to 149 °C	CC(C)N(C(=O)c1ccc(OCCCCCOc2ccc(C(N)=NO)cc2)cc1)C(C)C
52 to 54 °C	O=C(OC(c1ccccc1)c1ccccc1)C(O)Cc1ccc(F)cc1 (stereo not drawn)
238 to 240 °C	CCn1c(=O)c2ccc(C(=O)O)cc2n(Cc2ccc(Cl)cc2Cl)c1=O

Compound	melting point
O=c1ccn2c(n1)CN=C(c1ccccc1)c1cc(Cl)ccc1-2	208 to 209 °C
Cc1cc(C)n(CC2CC3c4cccc5[nH]cc(c45)CC3N(C)C2)n1 (stereo not drawn)	187 to 190 °C
COc1cccc2c1CCN([C@@H]1CN3CCC1CC3)C2=O	> 290 °C
